# According to patent US5140009A (Tap Pharmaceuticals, Inc., priority 1990, dated 1992):
# Numbered stars: 1 amine (or outer) side, 2 acyl side, 3 side chain; on linkers, the order of the positions; unused ones are H or OH. Square brackets hold non-standard residues; d marks the D form. Side chains are listed from the residue outwards. Peptide text beside a SMILES is read from it. * marks the point of attachment. Propanoyl(3-(4-F-phenyl)) = O=C(CCc1ccc(F)cc1)*; d1Nal = N[C@H](Cc1cccc2ccccc12)C(=O)O; Lys(iPr) = CC(C)NCCCC[C@H](N)C(=O)O; NMeY = CN[C@@H](Cc1ccc(O)cc1)C(=O)O; Pyrazinecarbonyl = O=C(c1cnccn1)*; Piperazinyl(4-Me) = CN1CCN(*)CC1; Nicotinoyl = O=C(c1cccnc1)*; CO = O=C([*:1])[*:2]
# Tests used:
# LHRH receptors = target: T1, LHRH receptors (Rattus norvegicus, UniProt P30969); assay: Receptor Binding (radioligand receptor binding assay); conditions: rat pituitary membranes, 2 hours at 4° C.; for Ki: read-out: Receptor Binding pkI (converted)
# T1 construct: Pituitary membranes containing LHRH receptors are prepared in batches from quick-frozen rat pituitaries; tissue Hilltop Labs; host or cells: rat pituitary membranes
# T1 sequence (P30969 1-327): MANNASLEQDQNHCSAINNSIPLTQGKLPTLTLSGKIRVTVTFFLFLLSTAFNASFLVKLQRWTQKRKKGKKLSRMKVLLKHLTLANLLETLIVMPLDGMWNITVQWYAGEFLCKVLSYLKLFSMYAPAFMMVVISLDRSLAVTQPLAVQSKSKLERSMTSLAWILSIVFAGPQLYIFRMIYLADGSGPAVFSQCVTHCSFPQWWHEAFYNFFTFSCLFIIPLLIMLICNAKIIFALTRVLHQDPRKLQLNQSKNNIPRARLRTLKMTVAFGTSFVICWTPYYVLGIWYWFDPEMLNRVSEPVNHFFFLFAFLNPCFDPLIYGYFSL
# male castrate rats = assay: In vivo LH Inhibiton; parameters: species or system rat; conditions: table 4, 30 ug/kg subcutaneously by bolus injection, AUC of log (LHt /LHi)
# Experimental: (c) In vivo LH Inhibiton. The compound to be tested is administered at 30 ug/kg subcutaneously by bolus injection to male castrate rats and blood samples are collected periodically over 24 hours. The AUC (area under the curve) of the LH suppression data as a function of time is calculated using the formula log (LHt /LHi) wherein LHt is the LH concentration in the blood at time t and LHi is the initial baseline LH concentration in the blood. The AUC values are negative numbers.
# castrated rats = assay: In vivo LH Release; parameters: species or system rat; conditions: table 3, dose producing half-maximal LH release
# Experimental: (d) In vivo LH Release. The compound to be tested is administered to castrated rats intraveneously and the serum LH concentration at various time points is measured by RIA. The time integrated LH response is calculated and the dose producing half-maximal LH release (ED50) is reported.
# Rat pituitaries = target: T2, Rat pituitaries (Rattus norvegicus, UniProt P30969); assay: In vitro LH release suppression by LHRH antagonists in presence of superagonist [D-Leu^6 -Pro^9 NHEt]LHRH (pA2); assay type: cell-based; conditions: negative log of concentration producing half-maximum suppression of LH
# T2 sequence (P30969 1-327): T1 sequence (P30969 1-327)
Molecule,"Ki (LHRH receptors; table 4, radioligand 50 pM) [pM]",AUC (24 hr. after 30 ug/kg) (male castrate rats),other results
"CC(C)C[C@H](NC(=O)[C@@H](CCCCNC(=O)c1cccnc1)NC(=O)[C@H](Cc1ccc(O)cc1)N(C)C(=O)[C@H](CO)NC(=O)[C@@H](Cc1cccc2ccccc12)NC(=O)CCc1ccc(F)cc1)C(=O)N[C@@H](CCCCNC(C)C)C(=O)N1CCC[C@H]1C(=O)N[C@H](C)C(N)=O [Compound 197, (3-10)[N-(3-(4-Fluorophenyl)propionyl)-D-1-Nal^3 -NMeTyr^5 -D-Lys^6 (N-epsilon-nicotinyl)-Lys^8 (N-epsilon-isopropyl)-D-Ala^10]LHRH] ({Propanoyl(3-(4-F-phenyl))}-[d1Nal]S[NMeY][dK](Nicotinoyl)L[Lys(iPr)]P[dA]-NH2)",11.2,-688,–
"CC(C)C[C@H](NC(=O)[C@@H](CCCCNC(=O)c1cnccn1)NC(=O)[C@H](Cc1ccc(O)cc1)N(C)C(=O)[C@H](CO)NC(=O)[C@@H](Cc1cccc2ccccc12)NC(=O)CCc1ccc(F)cc1)C(=O)N[C@@H](CCCCNC(C)C)C(=O)N1CCC[C@H]1C(=O)N[C@H](C)C(N)=O [Compound 207, (3-10)[N-(3-(4-Fluorophenyl)propionyl)-D-1-Nal^3 -NMeTyr^5 -D-Lys^6 (N-epsilon-2-pyrazinyecarbonyl)-Lys^8 (N-epsilon-isopropyl)-D-Ala^10]LHRH] ({Propanoyl(3-(4-F-phenyl))}-[d1Nal]S[NMeY][dK](Pyrazinecarbonyl)L[Lys(iPr)]P[dA]-NH2)",2.88,-412,–
"CC(C)C[C@H](NC(=O)CNC(=O)[C@H](Cc1ccc(O)cc1)NC(=O)[C@H](CO)NC(=O)[C@H](Cc1c[nH]c2ccccc12)NC(=O)[C@H](Cc1c[nH]cn1)NC(=O)[C@@H]1CCC(=O)N1)C(=O)N[C@@H](CCCNC(=N)N)C(=O)N1CCC[C@H]1C(=O)NCC(N)=O [LHRH, Luteinizing hormone releasing hormone]",–,–,ED50 ug/kg i.v. (castrated rats): 859 µg/kg
"(2-9)[N-(N-alpha-Morpholinocarbonyl)-D,L-4-F-Phe^2 -D-Trp^6 -Pro^9 NHEt]LHRH [Compound 113]",–,–,"Receptor Binding pkI (LHRH receptors; table 3, radioiodinated [D-Leu^6 -des Gly^10 ]-LHRH ethyl amide 50 pM): 9.51; LH Inhibition pA2 (Rat pituitaries; table 3): 8.63"
(3-10)[N-(3-(4-Fluorophenyl)propionyl)-D-Trp^3 -NMeTyr^5 -D-Lys^6 -D-Ala^10 ]LHRH [Compound 182],–,–,"Receptor Binding pkI (LHRH receptors; table 4, radioligand 50 pM): 10.55; LH Inhibition pA2 (Rat pituitaries; table 4): 9.32"

# Now from value to molecule, other results behind:
"Ki (LHRH receptors; table 4, radioligand 50 pM) [pM]",Molecule,AUC (24 hr. after 30 ug/kg) (male castrate rats),other results
2.4,"CCNC(=O)[C@@H]1CCCN1C(=O)[C@H](CCCCNC(C)C)NC(=O)[C@H](CC(C)C)NC(=O)[C@@H](CCCCNC(=O)c1cccnc1)NC(=O)[C@H](Cc1ccc(O)cc1)N(C)C(=O)[C@H](CO)NC(=O)[C@@H](Cc1cccc2ccccc12)NC(=O)CCc1ccc(F)cc1 [Compound 209, N-(3-(4-Fluorophenyl)propionyl)-D-1-Nal-Ser-NMeTyr-D-Lys(N-epsilon-nicotinyl)-Leu-Lys(N-epsilon-isopropyl)-Pro-NHEt] ({Propanoyl(3-(4-F-phenyl))}-[d1Nal]S[NMeY][dK](Nicotinoyl)L[Lys(iPr)]P-NHEt)",-343,–
15.1,"CC(C)C[C@H](NC(=O)[C@@H](CCCCNC(=O)N1CCN(C)CC1)NC(=O)[C@H](Cc1ccc(O)cc1)N(C)C(=O)[C@H](CO)NC(=O)[C@@H](Cc1cccc2ccccc12)NC(=O)CCc1ccc(F)cc1)C(=O)N[C@@H](CCCNC(=N)N)C(=O)N1CCC[C@H]1C(=O)N[C@H](C)C(N)=O [Compound 211, N-(3-(4-Fluorophenyl)propionyl)-D-1-Nal-Ser-NMeTyr-D-Lys(N-epsilon-N'-N""-methylpiperazinecarbonyl)-Leu-Arg-Pro-D-AlaNH2] ({Propanoyl(3-(4-F-phenyl))}-[d1Nal]S[NMeY][dK]([CO-Piperazinyl(4-Me)])LRP[dA]-NH2)",-449,–
